Experimental data from PMC5341070, “Small molecule inhibitors block Gas6-inducible TAM activation and tumorigenicity” (Scientific Reports, 2017).
One block for each compound: values may come before it.

Key:
Test in all cases: biochemical
Set-up in all cases: KINOMEscan (DiscoverX) competition binding screen of 97 human kinases, percent of control at 10 uM
[1] = biological target: T1, LKB1 (Homo sapiens, UniProt Q15831)
T1 construct: gene STK11
Method: (§1) The KINOMEscan profiling of the inhibitors were performed as per directions by the manufacturer (DiscoverX) against a panel of human protein kinases.

[2] = biological target: RAF1 (Homo sapiens, UniProt P04049)
Method: as §1

[3] = biological target: PAK1 (Homo sapiens, UniProt Q13153)
Method: as §1

[4] = biological target: PIK3CA (Homo sapiens, UniProt P42336)
Method: as §1

[5] = biological target: ALK (Homo sapiens, UniProt Q9UM73)
Method: as §1

[6] = biological target: T2, ABL1-nonphosphorylated (Homo sapiens, UniProt P00519)
T2 construct: nonphosphorylated
Method: as §1

[7] = biological target: PLK3 (Homo sapiens, UniProt Q9H4B4)
Method: as §1

[8] = biological target: ERBB4 (Homo sapiens, UniProt Q15303)
Method: as §1

[9] = biological target: KIT(D816V) (Homo sapiens, UniProt P10721, D816V)
Method: as §1

[10] = biological target: KIT(V559D,T670I) (Homo sapiens, UniProt P10721, T670I/V559D)
Method: as §1

[11] = biological target: AURKB (Homo sapiens, UniProt Q96GD4)
Method: as §1

[12] = biological target: CSNK1G2 (Homo sapiens, UniProt P78368)
Method: as §1

[13] = biological target: PIK3C2B (Homo sapiens, UniProt O00750)
Method: as §1

[14] = biological target: PIK3CG (Homo sapiens, UniProt P48736)
Method: as §1

[15] = biological target: PDGFRB (Homo sapiens, UniProt P09619)
Method: as §1

[16] = biological target: TGFBR1 (Homo sapiens, UniProt P36897)
Method: as §1

[17] = biological target: T3, JNK2 (Homo sapiens, UniProt P45984)
T3 construct: gene MAPK9
Method: as §1

[18] = biological target: FGFR2 (Homo sapiens, UniProt P21802)
Method: as §1

[19] = biological target: GSK3B (Homo sapiens, UniProt P49841)
Method: as §1

[20] = biological target: T4, CDK11 (Homo sapiens, UniProt Q9BWU1)
T4 construct: gene CDK19
Method: as §1

[21] = biological target: RET (Homo sapiens, UniProt P07949)
Method: as §1

[22] = biological target: BRAF (Homo sapiens, UniProt P15056)
Method: as §1

[23] = biological target: T5, PCTK1 (Homo sapiens, UniProt Q00536)
T5 construct: gene CDK16
Method: as §1

[24] = read-out: R428 %Ctrl @ 10000nM, binding competition
[25] = binding competition, % of control, read-out: RU-301 %Ctrl @ 10000nM

Chain of PDGFRB (P09619 whole entry): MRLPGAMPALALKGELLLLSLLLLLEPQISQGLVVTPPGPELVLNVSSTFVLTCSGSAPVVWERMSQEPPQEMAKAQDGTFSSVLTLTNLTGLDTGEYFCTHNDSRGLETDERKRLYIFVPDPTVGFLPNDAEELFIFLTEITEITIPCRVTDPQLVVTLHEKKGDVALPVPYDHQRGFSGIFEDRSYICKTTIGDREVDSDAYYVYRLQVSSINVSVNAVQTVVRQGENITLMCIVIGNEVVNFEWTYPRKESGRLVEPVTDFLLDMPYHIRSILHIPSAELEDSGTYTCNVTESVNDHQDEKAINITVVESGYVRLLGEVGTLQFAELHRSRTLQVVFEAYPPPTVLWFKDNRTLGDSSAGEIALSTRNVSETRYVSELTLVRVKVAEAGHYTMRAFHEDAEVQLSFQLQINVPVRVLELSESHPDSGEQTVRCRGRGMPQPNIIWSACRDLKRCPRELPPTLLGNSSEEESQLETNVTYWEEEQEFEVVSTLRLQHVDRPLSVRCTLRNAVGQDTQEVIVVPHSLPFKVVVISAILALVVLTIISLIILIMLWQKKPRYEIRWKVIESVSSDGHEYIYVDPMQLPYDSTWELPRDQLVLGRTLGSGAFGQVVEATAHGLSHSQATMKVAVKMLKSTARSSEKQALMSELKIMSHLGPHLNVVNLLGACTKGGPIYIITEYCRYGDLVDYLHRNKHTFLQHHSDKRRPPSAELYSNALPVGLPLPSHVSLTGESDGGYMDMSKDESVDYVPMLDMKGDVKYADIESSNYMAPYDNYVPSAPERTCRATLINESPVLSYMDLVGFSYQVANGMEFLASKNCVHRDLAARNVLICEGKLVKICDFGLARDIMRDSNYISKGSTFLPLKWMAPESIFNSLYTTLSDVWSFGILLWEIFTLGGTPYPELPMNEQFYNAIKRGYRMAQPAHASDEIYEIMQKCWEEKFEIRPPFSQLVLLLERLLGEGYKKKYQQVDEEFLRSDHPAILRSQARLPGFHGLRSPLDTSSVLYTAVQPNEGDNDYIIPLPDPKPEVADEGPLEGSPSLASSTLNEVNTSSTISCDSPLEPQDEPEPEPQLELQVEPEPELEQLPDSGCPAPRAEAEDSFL
Chain of ERBB4 (Q15303 whole entry): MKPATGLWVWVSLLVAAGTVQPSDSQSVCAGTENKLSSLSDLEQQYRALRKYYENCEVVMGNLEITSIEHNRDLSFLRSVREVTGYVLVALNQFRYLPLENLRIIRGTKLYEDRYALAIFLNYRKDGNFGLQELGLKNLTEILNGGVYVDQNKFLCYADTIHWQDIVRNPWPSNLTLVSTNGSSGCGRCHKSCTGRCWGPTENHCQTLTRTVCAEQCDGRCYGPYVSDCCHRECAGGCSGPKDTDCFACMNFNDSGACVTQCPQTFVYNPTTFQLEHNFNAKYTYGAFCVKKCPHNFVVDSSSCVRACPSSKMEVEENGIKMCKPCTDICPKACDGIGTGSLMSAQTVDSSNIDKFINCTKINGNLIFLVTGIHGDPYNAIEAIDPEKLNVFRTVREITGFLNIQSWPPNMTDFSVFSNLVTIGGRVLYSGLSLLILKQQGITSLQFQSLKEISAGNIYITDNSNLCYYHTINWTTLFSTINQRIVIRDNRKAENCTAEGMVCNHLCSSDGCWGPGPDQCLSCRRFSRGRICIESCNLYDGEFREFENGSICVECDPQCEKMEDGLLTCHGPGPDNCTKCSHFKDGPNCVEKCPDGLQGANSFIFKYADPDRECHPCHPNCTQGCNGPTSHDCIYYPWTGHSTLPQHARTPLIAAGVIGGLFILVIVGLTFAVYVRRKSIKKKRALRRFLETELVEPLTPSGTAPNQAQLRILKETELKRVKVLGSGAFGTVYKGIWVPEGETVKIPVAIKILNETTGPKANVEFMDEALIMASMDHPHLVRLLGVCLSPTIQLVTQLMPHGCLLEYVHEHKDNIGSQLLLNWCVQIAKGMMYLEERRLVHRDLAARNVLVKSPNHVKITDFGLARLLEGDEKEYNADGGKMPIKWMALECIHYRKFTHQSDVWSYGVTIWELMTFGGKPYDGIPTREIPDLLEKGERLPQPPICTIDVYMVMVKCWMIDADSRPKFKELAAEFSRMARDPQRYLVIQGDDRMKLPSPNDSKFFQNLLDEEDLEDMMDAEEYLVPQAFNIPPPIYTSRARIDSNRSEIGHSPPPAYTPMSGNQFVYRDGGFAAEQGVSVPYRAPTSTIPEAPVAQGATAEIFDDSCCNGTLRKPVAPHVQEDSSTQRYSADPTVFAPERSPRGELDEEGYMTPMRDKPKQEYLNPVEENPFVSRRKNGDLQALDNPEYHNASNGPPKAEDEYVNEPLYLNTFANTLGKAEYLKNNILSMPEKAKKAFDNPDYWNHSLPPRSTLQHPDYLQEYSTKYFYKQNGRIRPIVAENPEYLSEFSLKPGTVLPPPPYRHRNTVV
T2 sequence (P00519 whole entry): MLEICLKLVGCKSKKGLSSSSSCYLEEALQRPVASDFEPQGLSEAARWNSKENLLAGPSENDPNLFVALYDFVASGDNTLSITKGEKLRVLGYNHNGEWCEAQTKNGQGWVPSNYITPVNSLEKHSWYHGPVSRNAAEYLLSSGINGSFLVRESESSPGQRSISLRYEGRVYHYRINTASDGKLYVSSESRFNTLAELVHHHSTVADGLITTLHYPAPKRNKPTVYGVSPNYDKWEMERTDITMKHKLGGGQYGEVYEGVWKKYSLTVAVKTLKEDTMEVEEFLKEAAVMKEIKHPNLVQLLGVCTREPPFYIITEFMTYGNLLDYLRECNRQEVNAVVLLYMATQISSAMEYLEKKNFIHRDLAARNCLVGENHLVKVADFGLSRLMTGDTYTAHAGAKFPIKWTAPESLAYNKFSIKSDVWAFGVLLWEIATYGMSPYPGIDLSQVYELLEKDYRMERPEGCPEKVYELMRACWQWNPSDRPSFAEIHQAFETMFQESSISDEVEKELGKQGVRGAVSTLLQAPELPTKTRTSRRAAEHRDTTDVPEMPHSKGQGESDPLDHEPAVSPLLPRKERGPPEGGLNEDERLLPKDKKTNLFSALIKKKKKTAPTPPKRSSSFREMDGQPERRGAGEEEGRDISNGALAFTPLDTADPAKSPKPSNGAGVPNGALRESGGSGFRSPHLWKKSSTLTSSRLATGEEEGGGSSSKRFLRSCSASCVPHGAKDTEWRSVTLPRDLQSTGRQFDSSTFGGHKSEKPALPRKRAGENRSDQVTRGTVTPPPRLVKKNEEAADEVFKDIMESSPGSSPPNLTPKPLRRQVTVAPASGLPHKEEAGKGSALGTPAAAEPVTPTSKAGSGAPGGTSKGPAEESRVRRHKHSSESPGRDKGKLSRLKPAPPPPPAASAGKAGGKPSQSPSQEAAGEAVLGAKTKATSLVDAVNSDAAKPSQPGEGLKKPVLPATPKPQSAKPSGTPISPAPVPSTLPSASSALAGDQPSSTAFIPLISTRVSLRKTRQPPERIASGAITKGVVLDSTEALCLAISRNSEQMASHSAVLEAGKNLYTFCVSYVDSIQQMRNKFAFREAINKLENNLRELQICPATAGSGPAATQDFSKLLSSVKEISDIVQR
Chain of CSNK1G2 (P78368 whole entry): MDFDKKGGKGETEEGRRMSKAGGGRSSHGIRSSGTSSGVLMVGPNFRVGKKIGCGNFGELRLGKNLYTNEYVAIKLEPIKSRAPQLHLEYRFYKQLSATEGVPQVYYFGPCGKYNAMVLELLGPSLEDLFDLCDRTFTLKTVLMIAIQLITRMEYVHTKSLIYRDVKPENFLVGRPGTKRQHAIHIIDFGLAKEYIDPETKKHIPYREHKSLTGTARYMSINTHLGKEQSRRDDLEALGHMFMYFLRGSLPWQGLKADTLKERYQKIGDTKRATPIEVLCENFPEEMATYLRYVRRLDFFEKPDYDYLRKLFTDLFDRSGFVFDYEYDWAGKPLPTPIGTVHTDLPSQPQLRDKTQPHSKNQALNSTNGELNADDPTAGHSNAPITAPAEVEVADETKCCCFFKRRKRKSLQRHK
T3 sequence (P45984 whole entry): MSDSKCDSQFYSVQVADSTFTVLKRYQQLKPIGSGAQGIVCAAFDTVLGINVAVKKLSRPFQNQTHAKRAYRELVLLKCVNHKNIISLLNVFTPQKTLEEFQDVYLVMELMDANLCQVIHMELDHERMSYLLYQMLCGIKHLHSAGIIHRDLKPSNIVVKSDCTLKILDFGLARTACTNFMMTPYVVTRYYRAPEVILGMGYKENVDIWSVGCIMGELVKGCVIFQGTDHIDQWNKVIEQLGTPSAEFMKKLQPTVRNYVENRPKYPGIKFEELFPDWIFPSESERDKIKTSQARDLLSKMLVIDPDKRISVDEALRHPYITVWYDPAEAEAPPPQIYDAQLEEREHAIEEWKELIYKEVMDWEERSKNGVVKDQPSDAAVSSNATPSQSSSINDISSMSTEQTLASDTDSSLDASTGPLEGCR
T1 sequence (Q15831 whole entry): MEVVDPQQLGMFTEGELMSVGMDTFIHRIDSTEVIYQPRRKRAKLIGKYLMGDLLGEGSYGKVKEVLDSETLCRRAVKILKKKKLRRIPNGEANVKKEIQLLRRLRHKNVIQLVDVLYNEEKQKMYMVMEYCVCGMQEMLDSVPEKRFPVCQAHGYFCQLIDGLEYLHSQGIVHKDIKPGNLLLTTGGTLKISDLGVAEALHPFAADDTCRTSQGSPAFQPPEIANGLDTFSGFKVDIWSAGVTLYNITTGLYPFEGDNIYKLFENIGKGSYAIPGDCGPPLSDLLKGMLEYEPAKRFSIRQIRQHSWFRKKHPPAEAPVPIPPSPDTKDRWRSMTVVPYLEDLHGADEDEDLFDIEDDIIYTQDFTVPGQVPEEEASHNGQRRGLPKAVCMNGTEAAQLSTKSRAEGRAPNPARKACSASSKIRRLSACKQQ

- percent of control binding at 10 µM [1, 24]: 60%
- percent of control binding at 10 µM [2, 24]: 100%
- percent of control binding at 10 µM [3, 24]: 74%
- percent of control binding at 10 µM [4, 24]: 45%
- percent of control binding at 10 µM [5, 24]: 60%
- percent of control binding at 10 µM [6, 24]: 0.25%
- percent of control binding at 10 µM [7, 24]: 29%
- percent of control binding at 10 µM [8, 24]: 34%
- percent of control binding at 10 µM [9, 24]: 0.15%
- percent of control binding at 10 µM [10, 24]: 0.05%
- percent of control binding at 10 µM [11, 24]: 0.45%
- percent of control binding at 10 µM [12, 24]: 4.6%
- percent of control binding at 10 µM [13, 24]: 31%
- percent of control binding at 10 µM [14, 24]: 21%
- percent of control binding at 10 µM [15, 24]: 0%
- percent of control binding at 10 µM [16, 24]: 75%
- percent of control binding at 10 µM [17, 24]: 96%
- percent of control binding at 10 µM [18, 24]: 30%
- percent of control binding at 10 µM [19, 24]: 74%
- percent of control binding at 10 µM [20, 24]: 98%
- percent of control binding at 10 µM [21, 24]: 0%
- percent of control binding at 10 µM [22, 24]: 64%
- percent of control binding at 10 µM [23, 24]: 90%
SMILES: Nc1nc(Nc2ccc3c(c2)CC[C@@H](N2CCCC2)CC3)nn1-c1cc2c(nn1)-c1ccccc1CCC2 [R428]

- remaining binding at 10 µM [1, 25]: 77%
- remaining binding at 10 µM [2, 25]: 84%
- remaining binding at 10 µM [3, 25]: 97%
- remaining binding at 10 µM [4, 25]: 100%
- remaining binding at 10 µM [5, 25]: 100%
- remaining binding at 10 µM [6, 25]: 100%
- remaining binding at 10 µM [7, 25]: 91%
- remaining binding at 10 µM [8, 25]: 83%
- remaining binding at 10 µM [9, 25]: 100%
- remaining binding at 10 µM [10, 25]: 85%
- remaining binding at 10 µM [11, 25]: 73%
- remaining binding at 10 µM [12, 25]: 100%
- remaining binding at 10 µM [13, 25]: 100%
- remaining binding at 10 µM [14, 25]: 100%
- remaining binding at 10 µM [15, 25]: 91%
- remaining binding at 10 µM [16, 25]: 100%
- remaining binding at 10 µM [17, 25]: 97%
- remaining binding at 10 µM [18, 25]: 100%
- remaining binding at 10 µM [19, 25]: 98%
- remaining binding at 10 µM [20, 25]: 94%
- remaining binding at 10 µM [21, 25]: 97%
- remaining binding at 10 µM [22, 25]: 99%
- remaining binding at 10 µM [23, 25]: 100%
SMILES: Cc1cc(CSc2ccccc2C(=O)NCCNc2ccc(C(F)(F)F)cc2[N+](=O)[O-])on1 [RU-301]
